Data as given in US20140303164A1, “THERAPEUTIC COMPOUNDS” (Gilead Sciences, Inc., priority 2013, published 2014).

Experiments:
HIV-IIIb = assay: Test A: Antiviral Assay in MT4 Cells; type: cell-based, HIV-1; conditions: Human immunodeficiency virus 1, IIIB, MT4, 120 h; for inhibition at 0.2 µM: read-out: % inhibition at 0.2 μM; for inhibition at 2 µM: read-out: % inhibition at 2 μM
Description: Test A: Antiviral Assay in MT4 Cells
MT-4 cells were next mixed with HIV-IIIb at an m.o.i of 0.003 for 1 hour, after which time 35 μL of virus/cell mixture (2000 cells) was immediately added to each well containing 40 μL of diluted compound. The plates were then incubated at 37° C. for 5 days. […] Cell lysis was carried out by incubating at room temperature for 10 min and then chemiluminescence was read.

[1] = Test B: Cytotoxicity Assay; type: cell-based; conditions: human, uninfected MT-4 cells, same protocol as Test A
Summary of the method: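 Uninfected MT-4 cells (2000 per well) incubated with diluted compound at 37° C. for 5 days, following the antiviral protocol without HIV-IIIb.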

Compound | inhibition at 0.2 µM (HIV-IIIb) [%] | inhibition at 2 µM (HIV-IIIb) [%] | CC50 at 5 days [1] [µM]
Cn1nc(N)c2c(Cl)ccc(-c3ccc(C#CC(C)(C)O)nc3[C@H](Cc3cc(F)cc(F)c3)NC(=O)Cn3nc(C(F)(F)F)c4c3C(F)(F)[C@@H]3C[C@H]43)c21 [Compound 55C, N—((S)-1-(3-(3-amino-4-chloro-1-methyl-1H-indazol-7-yl)-6-(3-hydroxy-3-methylbut-1-yn-1-yl)pyridin-2-yl)-2-(3,5-difluorophenyl)ethyl)-2-((3b-S,4aR)-5,5-difluoro-3-(trifluoromethyl)-3b,4,4a,5-tetrahydro-1H-cyclopropa[3,4]cyclopenta[1,2-c]pyrazol-1-yl)acetamide] | 92 | 92 | 9.56
CN1CCN(S(=O)(=O)Nc2nn(C)c3c(-c4ccc(C#CC(C)(C)O)nc4[C@H](Cc4cc(F)cc(F)c4)NC(=O)Cn4nc(C(F)(F)F)c5c4C(F)(F)[C@@H]4C[C@H]54)cccc23)CC1 [Compound 56F, 2-((3bS,4aR)-5,5-difluoro-3-(trifluoromethyl)-3b,4,4a,5-tetrahydro-1H-cyclopropa[3,4]cyclopenta[1,2-c]pyrazol-1-yl)-N—((S)-2-(3,5-difluorophenyl)-1-(6-(3-hydroxy-3-methylbut-1-yn-1-yl)-3-(1-methyl-3-(4-methylpiperazine-1-sulfonamido)-1H-indazol-7-yl)pyridin-2-yl)ethyl)acetamide] | 97 | 97 | 19
Cn1nc(N)c2c(Cl)ccc(-c3ccc(C#CC(C)(C)O)nc3[C@H](Cc3cc(F)cc(F)c3)NC(=O)Cn3nc(C(F)F)c4c3C(F)(F)[C@@H]3C[C@H]43)c21 [Compound 57, N—((S)-1-(3-(3-amino-4-chloro-1-methyl-1H-indazol-7-yl)-6-(3-hydroxy-3-methylbut-1-yn-1-yl)pyridin-2-yl)-2-(3,5-difluorophenyl)ethyl)-2-((3bS,4aR)-3-(difluoromethyl)-5,5-difluoro-3b,4,4a,5-tetrahydro-1H-cyclopropa[3,4]cyclopenta[1,2-c]pyrazol-1-yl)acetamide] | 93 | 93 | 7.63
Cc1ccc(-c2ccc(C#CC(C)(C)O)nc2[C@H](Cc2cc(F)cc(F)c2)NC(=O)Cn2nc(C(F)F)c3c2C(F)(F)[C@@H]2C[C@H]32)c2c1c(N)nn2C [Compound 58G, N—((S)-1-(3-(3-amino-1,4-dimethyl-1H-indazol-7-yl)-6-(3-hydroxy-3-methylbut-1-yn-1-yl)pyridin-2-yl)-2-(3,5-difluorophenyl)ethyl)-2-((3b-S,4aR)-3-(difluoromethyl)-5,5-difluoro-3b,4,4a,5-tetrahydro-1H-cyclopropa[3,4]cyclopenta[1,2-c]pyrazol-1-yl)acetamide] | 95 | 95 | 8.44
Cn1cc(-c2ccc(-c3cccc4c(NS(C)(=O)=O)nn(C)c34)c([C@H](Cc3cc(F)cc(F)c3)NC(=O)Cn3nc(C(F)(F)F)c4c3C(F)(F)[C@@H]3C[C@H]43)n2)cn1 [Compound 60, 2-((3bS,4aR)-5,5-difluoro-3-(trifluoromethyl)-3b,4,4a,5-tetrahydro-1H-cyclopropa[3,4]cyclopenta[1,2-c]pyrazol-1-yl)-N—((S)-2-(3,5-difluorophenyl)-1-(6-(1-methyl-1H-pyrazol-4-yl)-3-(1-methyl-3-(methylsulfonamido)-1H-indazol-7-yl)pyridin-2-yl)ethyl)acetamide] | 86 | 96 | 14.3
CN(C)CC#Cc1ccc(-c2cccc3c(NS(C)(=O)=O)nn(C)c23)c([C@H](Cc2cc(F)cc(F)c2)NC(=O)Cn2nc(C(F)(F)F)c3c2C(F)(F)[C@@H]2C[C@H]32)n1 [Compound 61B, 2-((3bS,4aR)-5,5-difluoro-3-(trifluoromethyl)-3b,4,4a,5-tetrahydro-1H-cyclopropa[3,4]cyclopenta[1,2-c]pyrazol-1-yl)-N—((S)-2-(3,5-difluorophenyl)-1-(6-(3-(dimethylamino)prop-1-yn-1-yl)-3-(1-methyl-3-(methylsulfonamido)-1H-indazol-7-yl)pyridin-2-yl)ethyl)acetamide] | 96 | 96 | 14.3
CC(C)C(C)(O)C#Cc1ccc(-c2cccc3c(NS(C)(=O)=O)nn(C)c23)c([C@H](Cc2cc(F)cc(F)c2)NC(=O)Cn2nc(C(F)(F)F)c3c2C(F)(F)[C@@H]2C[C@H]32)n1 (stereo partly drawn) [Compound 62, 2-((3bS,4aR)-5,5-difluoro-3-(trifluoromethyl)-3b,4,4a,5-tetrahydro-1H-cyclopropa[3,4]cyclopenta[1,2-c]pyrazol-1-yl)-N-((1S)-2-(3,5-difluorophenyl)-1-(6-(3-hydroxy-3,4-dimethylpent-1-yn-1-yl)-3-(1-methyl-3-(methylsulfonamido)-1H-indazol-7-yl)pyridin-2-yl)ethyl)acetamide] | 100 | 100 | 5.7
Cn1nc(NS(C)(=O)=O)c2cccc(-c3ccc(C#CC(C)(C)CO)nc3[C@H](Cc3cc(F)cc(F)c3)NC(=O)Cn3nc(C(F)(F)F)c4c3C(F)(F)[C@@H]3C[C@H]43)c21 [Compound 63, 2-((3bS,4aR)-5,5-difluoro-3-(trifluoromethyl)-3b,4,4a,5-tetrahydro-1H-cyclopropa[3,4]cyclopenta[1,2-c]pyrazol-1-yl)-N—((S)-2-(3,5-difluorophenyl)-1-(6-(4-hydroxy-3,3-dimethylbut-1-yn-1-yl)-3-(1-methyl-3-(methylsulfonamido)-1H-indazol-7-yl)pyridin-2-yl)ethyl)acetamide] | 91 | 91 | 8.89
CC(C)C(O)C#Cc1ccc(-c2cccc3c(NS(C)(=O)=O)nn(C)c23)c([C@H](Cc2cc(F)cc(F)c2)NC(=O)Cn2nc(C(F)(F)F)c3c2C(F)(F)[C@@H]2C[C@H]32)n1 (stereo partly drawn) [Compound 64, 2-((3bS,4aR)-5,5-difluoro-3-(trifluoromethyl)-3b,4,4a,5-tetrahydro-1H-cyclopropa[3,4]cyclopenta[1,2-c]pyrazol-1-yl)-N-((1S)-2-(3,5-difluorophenyl)-1-(6-(3-hydroxy-4-methylpent-1-yn-1-yl)-3-(1-methyl-3-(methylsulfonamido)-1H-indazol-7-yl)pyridin-2-yl)ethyl)acetamide] | 98 | 98 | 7.7
CCC(O)(C#Cc1ccc(-c2cccc3c(NS(C)(=O)=O)nn(C)c23)c([C@H](Cc2cc(F)cc(F)c2)NC(=O)Cn2nc(C(F)(F)F)c3c2C(F)(F)[C@@H]2C[C@H]32)n1)CC [Compound 66, 2-((3bS,4aR)-5,5-difluoro-3-(trifluoromethyl)-3b,4,4a,5-tetrahydro-1H-cyclopropa[3,4]cyclopenta[1,2-c]pyrazol-1-yl)-N—((S)-2-(3,5-difluorophenyl)-1-(6-(3-ethyl-3-hydroxypent-1-yn-1-yl)-3-(1-methyl-3-(methylsulfonamido)-1H-indazol-7-yl)pyridin-2-yl)ethyl)acetamide] | 97 | 97 | 6.96
Cn1nc(NS(C)(=O)=O)c2cccc(-c3ccc(C#CC(C)(C)O)nc3[C@H](Cc3cc(F)cc(F)c3)NC(=O)Cn3nc(C(F)(F)F)c4c3C3CC3CO4)c21 (stereo partly drawn) [Compound 67I, N—((S)-2-(3,5-difluorophenyl)-1-(6-(3-hydroxy-3-methylbut-1-yn-1-yl)-3-(1-methyl-3-(methylsulfonamido)-1H-indazol-7-yl)pyridin-2-yl)ethyl)-2-(3-(trifluoromethyl)-5,5a,6,6a-tetrahydro-1H-cyclopropa[4,5]pyrano[3,2-c]pyrazol-1-yl)acetamide] | 94 | 94 | 21.5
CNc1nn(C)c2c(-c3ccc(C#CC(C)(C)O)nc3[C@H](Cc3cc(F)cc(F)c3)NC(=O)Cn3nc(C(F)F)c4c3C(F)(F)[C@@H]3C[C@H]43)cccc12 [Compound 68G, 2-((3b-S,4aR)-3-(difluoromethyl)-5,5-difluoro-3b,4,4a,5-tetrahydro-1H-cyclopropa[3,4]cyclopenta[1,2-c]pyrazol-1-yl)-N—((S)-2-(3,5-difluorophenyl)-1-(6-(3-hydroxy-3-methylbut-1-yn-1-yl)-3-(1-methyl-3-(methylamino)-1H-indazol-7-yl)pyridin-2-yl)ethyl)acetamide] | 96 | 96 | 9.64
CC(C)(O)C#Cc1ccc(-c2cccc3c(N)noc23)c([C@H](Cc2cc(F)cc(F)c2)NC(=O)Cn2nc(C(F)(F)F)c3c2C(F)(F)[C@@H]2C[C@H]32)n1 [Compound 69, N—((S)-1-(3-(3-aminobenzo[d]isoxazol-7-yl)-6-(3-hydroxy-3-methylbut-1-yn-1-yl)pyridin-2-yl)-2-(3,5-difluorophenyl)ethyl)-2-((3b-S,4aR)-5,5-difluoro-3-(trifluoromethyl)-3b,4,4a,5-tetrahydro-1H-cyclopropa[3,4]cyclopenta[1,2-c]pyrazol-1-yl)acetamide] | 77 | 77 | 0.718
Cn1nc(NS(N)(=O)=O)c2c(Cl)ccc(-c3ccc(C#CC(C)(C)O)nc3[C@H](Cc3cc(F)cc(F)c3)NC(=O)Cn3nc(C(F)F)c4c3C(F)(F)[C@@H]3C[C@H]43)c21 [Compound 70, N—((S)-1-(3-(4-chloro-1-methyl-3-(sulfamoylamino)-1H-indazol-7-yl)-6-(3-hydroxy-3-methylbut-1-yn-1-yl)pyridin-2-yl)-2-(3,5-difluorophenyl)ethyl)-2-((3b-S,4aR)-3-(difluoromethyl)-5,5-difluoro-3b,4,4a,5-tetrahydro-1H-cyclopropa[3,4]cyclopenta[1,2-c]pyrazol-1-yl)acetamide] | 94 | 94 | 9.98
